From ChEMBL document CHEMBL5154926, “Discovery of a Novel Series of Imipridone Compounds as Homo sapiens Caseinolytic Protease P Agonists with Potent Antitumor Activities In Vitro and In Vivo” (J Med Chem, 2022)
Values after ≈ are worked out from the molar mass of the structure shown. Blank lines part the entries; values can stand above or below the compound they belong to.

Assays:
[1] = Clearance in Sprague-Dawley rat plasma at 5 mg/kg, iv after 0.083 to 24 hrs by LC-MS analysis; type: ADME, organism-based; conditions: time 0.083-24 hrs
[2] = Acute toxicity in BALB/c mouse assessed as change in CKMB level in blood at 100 mg/kg, ig administered as single dose measured after 14 days; type: organism-based; conditions: in vivo, po, 336 h, time 14 day
[3] = Acute toxicity in BALB/c mouse assessed as change in UREA in blood at 100 mg/kg, ig administered as single dose measured after 14 days; type: organism-based; conditions: in vivo, po, 336 h, time 14 day
[4] = Acute toxicity in BALB/c mouse assessed as body weight loss at 100 mg/kg, ig administered as single dose measured every day for 14 days; type: organism-based; conditions: in vivo, po, 336 h, time 14 day
[5] = Toxicity in BALB/c nude mouse xenografted with human HCT-116 cells assessed as body weight loss at 5 mg/kg, po administered twice a week for 19 days and measured every other day; type: organism-based; conditions: in vivo, 456 h, time 19 day
[6] = system: HCT-116; test: Antitumor activity in human HCT-116 cells xenografted in BALB/c nude mouse assessed tumor growth inhibition at 5 mg/kg, po administered twice a week for 19 days and measured every other day; type: functional; conditions: HCT-116, 456 h, time 19 day, read-out: TGI
[7] = Acute toxicity in BALB/c mouse assessed as pathological damage in heart at 100 mg/kg, ig administered as single dose measured after 14 days by hematoxylin and eosin staining method; type: organism-based; conditions: in vivo, po, 336 h, time 14 day
[8] = Tmax in Sprague-Dawley rat plasma at 15 mg/kg, po after 0.25 to 24 hrs by LC-MS analysis; type: ADME, organism-based; conditions: time 0.25-24 hrs
[9] = Oral bioavailability in Sprague-Dawley rat plasma at 15 mg/kg after 0.25 to 24 hrs by LC-MS analysis; type: ADME, organism-based; conditions: time 0.25-24 hrs
[10] = Acute toxicity in BALB/c mouse assessed as adverse effect at 100 mg/kg, ig administered as single dose measured every day for 14 days; type: organism-based; conditions: in vivo, po, 336 h, time 14 day
[11] = Terminal half life in Sprague-Dawley rat plasma at 5 mg/kg, iv after 0.083 to 24 hrs by LC-MS analysis; type: ADME, organism-based; conditions: time 0.083-24 hrs, read-out: beta t1/2 (converted)
[12] = Terminal half life in Sprague-Dawley rat plasma at 15 mg/kg, po after 0.25 to 24 hrs by LC-MS analysis; type: ADME, organism-based; conditions: time 0.25-24 hrs, read-out: beta t1/2 (converted)
[13] = Toxicity in BALB/c nude mouse xenografted with human HCT-116 cells assessed as body weight loss at 10 mg/kg, po administered twice a week for 19 days and measured every other day; type: organism-based; conditions: in vivo, 456 h, time 19 day
[14] = MRT (0 to 24 hrs) in Sprague-Dawley rat plasma at 5 mg/kg, iv after 0.083 to 24 hrs by LC-MS analysis; type: ADME, organism-based; conditions: time 0.083-24 hrs
[15] = Acute toxicity in BALB/c mouse assessed as pathological damage in kidney at 100 mg/kg, ig administered as single dose measured after 14 days by hematoxylin and eosin staining method; type: organism-based; conditions: in vivo, po, 336 h, time 14 day
[16] = Cmax in Sprague-Dawley rat plasma at 15 mg/kg, po after 0.25 to 24 hrs by LC-MS analysis; type: ADME, organism-based; design: time lower 0.25 hrs, dose 15 mg/kg, time upper 24 hrs, route po
[17] = Toxicity in BALB/c nude mouse xenografted with human HCT-116 cells assessed as body weight loss at 40 mg/kg, po administered twice a week for 19 days and measured every other day; type: organism-based; conditions: in vivo, 456 h, time 19 day
[18] = in vivo; conditions: Sprague-Dawley, rat, po, 15 mg/kg
[19] = in vivo; conditions: Sprague-Dawley, rat, iv, 5 mg/kg
[20] = system: HCT-116; test: Antitumor activity in human HCT-116 cells xenografted in BALB/c nude mouse assessed tumor growth inhibition at 10 mg/kg, po administered twice a week for 19 days and measured every other day; type: functional; conditions: HCT-116, 456 h, time 19 day, read-out: TGI
[21] = Acute toxicity in BALB/c mouse assessed as pathological damage in lung at 100 mg/kg, ig administered as single dose measured after 14 days by hematoxylin and eosin staining method; type: organism-based; conditions: in vivo, po, 336 h, time 14 day
[22] = Cmax in Sprague-Dawley rat plasma at 5 mg/kg, iv after 0.083 to 24 hrs by LC-MS analysis; type: ADME, organism-based; design: dose 5 mg/kg, time 0.083-24 hrs, route iv
[23] = Acute toxicity in BALB/c mouse assessed as change in ALT level in blood at 100 mg/kg, ig administered as single dose measured after 14 days; type: organism-based; conditions: in vivo, po, 336 h, time 14 day
[24] = MRT (0 to 24 hrs) in Sprague-Dawley rat plasma at 15 mg/kg, po after 0.25 to 24 hrs by LC-MS analysis; type: ADME, organism-based; conditions: time 0.25-24 hrs
[25] = Acute toxicity in BALB/c mouse assessed as pathological damage in liver at 100 mg/kg, ig administered as single dose measured after 14 days by hematoxylin and eosin staining method; type: organism-based; conditions: in vivo, po, 336 h, time 14 day
[26] = Acute toxicity in BALB/c mouse assessed as change in AST level in blood at 100 mg/kg, ig administered as single dose measured after 14 days; type: organism-based; conditions: in vivo, po, 336 h, time 14 day
[27] = Acute toxicity in BALB/c mouse assessed as pathological damage in spleen at 100 mg/kg, ig administered as single dose measured after 14 days by hematoxylin and eosin staining method; type: organism-based; conditions: in vivo, po, 336 h, time 14 day
[28] = system: HCT-116; test: Antitumor activity in human HCT-116 cells xenografted in BALB/c nude mouse assessed tumor growth inhibition at 20 mg/kg, po administered twice a week for 19 days and measured every measured every other day; type: functional; conditions: HCT-116, 456 h, time 19 day, read-out: TGI
[29] = Acute toxicity in BALB/c mouse assessed as change in CREA level in blood at 100 mg/kg, ig administered as single dose measured after 14 days; type: organism-based; conditions: in vivo, po, 336 h, time 14 day
[30] = system: HCT-116; test: Induction of cell cycle arrest in human HCT-116 cells assessed as accumulation of cells at G0/G1 phase at 50 nM incubated for 48 hrs propidium iodide based flow cytometric analysis (reference value: 26 %); type: functional
[31] = system: HCT-116; test: Induction of ROS generation in human HCT-116 cells at 50 nM measured after 24 hrs by DHE staining based fluorescence assay (reference value: […] %); type: functional
[32] = 1-octanol/water partition coefficient, log P of the compound agitated for 4 hrs measured by shake flask assay based HPLC analysis; type: physicochemical
[33] = system: HCT-116; test: Induction of apoptosis in human HCT-116 cells assessed as viable cells at 50 nM incubated for 48 hrs by Annexin V/FITC staining based flow cytometric method (reference value: 97.66%); type: functional; conditions: read-out: Activity
[34] = Stability in rat liver microsomes assessed as half life at 1.5 uM measured upto 90 mins in presence of NADPH by LC/MS analysis; type: ADME, Microsome; conditions: 1.5 h
[35] = system: HCT-116; test: Induction of ROS generation in human HCT-116 cells at 25 nM measured after 24 hrs by DHE staining based fluorescence assay (reference value: […] %); type: functional
[36] = system: HCT-116; test: Induction of apoptosis in human HCT-116 cells assessed as necrotic cells at 25 nM incubated for 48 hrs by Annexin V/FITC staining based flow cytometric method (reference value: 0.05%); type: functional
[37] = system: HCT-116; test: Induction of apoptosis in human HCT-116 cells assessed as viable cells at 12.5 nM incubated for 48 hrs by Annexin V/FITC staining based flow cytometric method (reference value: 97.66%); type: functional; conditions: read-out: Activity
[38] = Aqueous solubility of the compound agitated for 24 hrs by HPLC analysis; type: physicochemical; conditions: buffer
[39] = system: HCT-116; test: Induction of apoptosis in human HCT-116 cells assessed as viable cells at 25 nM incubated for 48 hrs by Annexin V/FITC staining based flow cytometric method (reference value: 97.66%); type: functional; conditions: read-out: Activity
[40] = system: HCT-116; test: Induction of apoptosis in human HCT-116 cells assessed as late apoptotic cells at 50 nM incubated for 48 hrs by Annexin V/FITC staining based flow cytometric method (reference value: 1.57%); type: functional
[41] = system: HCT-116; test: Induction of apoptosis in human HCT-116 cells assessed as early apoptotic cells at 25 nM incubated for 48 hrs by Annexin V/FITC staining based flow cytometric method (reference value: […]); type: functional
[42] = system: HCT-116; test: Induction of apoptosis in human HCT-116 cells assessed as late apoptotic cells at 12.5 nM incubated for 48 hrs by Annexin V/FITC staining based flow cytometric method (reference value: 1.57%); type: functional
[43] = system: HCT-116; test: Induction of apoptosis in human HCT-116 cells assessed as early apoptotic cells at 12.5 nM incubated for 48 hrs by Annexin V/FITC staining based flow cytometric method (reference value: […]); type: functional
[44] = target: Voltage-gated inwardly rectifying potassium channel KCNH2 (Homo sapiens, UniProt Q12809); test: Inhibition of hERG expressed in HEK293 cells by automated patch clamp assay; type: toxicity, cell-based
[45] = Stability in human liver microsomes assessed as intrinsic clearance at 1.5 uM measured upto 90 mins in presence of NADPH by LC/MS analysis; type: ADME, Microsome; conditions: read-out: CLH
[46] = system: HCT-116; test: Induction of apoptosis in human HCT-116 cells assessed as late apoptotic cells at 25 nM incubated for 48 hrs by Annexin V/FITC staining based flow cytometric method (reference value: 1.57%); type: functional
[47] = Stability in human liver microsomes assessed as half life at 1.5 uM measured upto 90 mins in presence of NADPH by LC/MS analysis; type: ADME, Microsome; conditions: human liver microsomes
[48] = system: HCT-116; test: Induction of cell cycle arrest in human HCT-116 cells assessed as accumulation of cells at G0/G1 phase at 12.5 nM incubated for 48 hrs propidium iodide based flow cytometric analysis (reference value: 26 %); type: functional
[49] = system: HCT-116; test: Induction of apoptosis in human HCT-116 cells assessed as early apoptotic cells at 50 nM incubated for 48 hrs by Annexin V/FITC staining based flow cytometric method (reference value: […]); type: functional
[50] = system: HCT-116; test: Induction of apoptosis in human HCT-116 cells assessed as necrotic cells at 50 nM incubated for 48 hrs by Annexin V/FITC staining based flow cytometric method (reference value: 0.05%); type: functional
[51] = system: HCT-116; test: Induction of ROS generation in human HCT-116 cells at 12.5 nM measured after 24 hrs by DHE staining based fluorescence assay (reference value: […] %); type: functional
[52] = system: HCT-116; test: Induction of apoptosis in human HCT-116 cells assessed as necrotic cells at 12.5 nM incubated for 48 hrs by Annexin V/FITC staining based flow cytometric method (reference value: 0.05%); type: functional

Voltage-gated inwardly rectifying potassium channel KCNH2, sequence (Q12809 whole entry): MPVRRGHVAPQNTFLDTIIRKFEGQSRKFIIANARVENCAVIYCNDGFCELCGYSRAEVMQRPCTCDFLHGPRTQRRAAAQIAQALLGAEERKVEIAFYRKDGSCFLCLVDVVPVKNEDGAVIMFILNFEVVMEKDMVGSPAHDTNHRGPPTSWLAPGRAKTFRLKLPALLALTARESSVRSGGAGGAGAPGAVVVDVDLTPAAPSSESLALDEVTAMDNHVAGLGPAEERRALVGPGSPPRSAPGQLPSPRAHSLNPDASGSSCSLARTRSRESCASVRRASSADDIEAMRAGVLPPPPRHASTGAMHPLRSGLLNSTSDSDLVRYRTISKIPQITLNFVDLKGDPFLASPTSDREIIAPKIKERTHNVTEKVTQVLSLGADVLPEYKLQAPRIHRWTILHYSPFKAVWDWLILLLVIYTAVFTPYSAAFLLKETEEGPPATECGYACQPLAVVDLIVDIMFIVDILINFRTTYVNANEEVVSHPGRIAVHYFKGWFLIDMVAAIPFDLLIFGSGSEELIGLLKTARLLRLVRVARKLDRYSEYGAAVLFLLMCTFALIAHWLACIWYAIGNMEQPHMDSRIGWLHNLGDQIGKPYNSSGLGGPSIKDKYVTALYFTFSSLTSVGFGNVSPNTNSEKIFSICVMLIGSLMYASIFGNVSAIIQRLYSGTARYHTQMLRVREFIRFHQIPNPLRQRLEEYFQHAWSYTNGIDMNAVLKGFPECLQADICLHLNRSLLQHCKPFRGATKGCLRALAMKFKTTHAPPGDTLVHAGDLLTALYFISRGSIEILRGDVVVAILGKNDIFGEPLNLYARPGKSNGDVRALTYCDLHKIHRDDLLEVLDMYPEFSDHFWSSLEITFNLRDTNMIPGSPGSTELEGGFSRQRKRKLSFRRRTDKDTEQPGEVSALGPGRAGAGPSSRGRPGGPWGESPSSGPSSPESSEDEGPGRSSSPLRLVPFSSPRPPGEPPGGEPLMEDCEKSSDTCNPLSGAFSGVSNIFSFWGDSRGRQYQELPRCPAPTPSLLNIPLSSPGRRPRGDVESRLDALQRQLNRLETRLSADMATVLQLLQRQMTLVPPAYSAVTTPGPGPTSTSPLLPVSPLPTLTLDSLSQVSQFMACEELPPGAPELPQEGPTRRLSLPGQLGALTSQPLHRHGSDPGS

Structure (SMILES): Cl.Cl.O.O=c1nc2n(c3c1CN(Cc1ccccc1)CC3)CCN2Cc1ccc(F)c(Br)c1
clearance [1]: 35.7 mL/min/kg | Activity [2]: Non-Toxic | Activity [3]: Non-Toxic | Activity [4]: Non-Toxic | Activity [5]: 27.7% | inhibition in vivo at 5 mg/kg [6]: 56% | Activity [7]: Non-Toxic | Tmax [8]: 19.8 min | bioavailability [9]: 61.1% | Activity [10]: Non-Toxic | half-life [11]: 76.2 min | half-life [12]: 61.8 min | Activity [13]: 23.9% | MRT last [14]: 33.6 min | Activity [15]: Non-Toxic | Cmax [16]: 2790 ng/mL | Activity [17]: 25% | AUC(0-t) ([18]; plasma): 4270 ng·h/mL | AUC(0-t) ([19]; plasma): 2330 ng·h/mL | inhibition in vivo at 10 mg/kg [20]: 60% | Activity [21]: Non-Toxic | Cmax [22]: 4010 ng/mL | Activity [23]: Non-Toxic | MRT last [24]: 77.4 min | Activity [25]: Non-Toxic | Activity [26]: Non-Toxic | Activity [27]: Non-Toxic | inhibition in vivo at 20 mg/kg [28]: 69% | Activity [29]: Non-Toxic

Structure (SMILES): O=c1nc2n(c3c1CN(Cc1ccccc1)CC3)CCN2Cc1ccc(F)c(Br)c1
Activity [30]: 55% | Activity [31]: 99.4% | logP at 4 h [32]: 3.21 | viability at 0.05 µM [33]: 91.6% | t1/2 [34]: 16.1 min | Activity [35]: 97.9% | Activity [36]: 0.12% | viability at 0.0125 µM [37]: 95.8% | solubility at 24 h [38]: 100 µM (≈ 47.1 µg/mL) | viability at […] [39]: 94.7% | Activity [40]: 5.12% | Activity [41]: 2.14% | Activity [42]: 2.82% | Activity [43]: 1.27% | IC50 [44]: 4.91 µM | CLint scaled at 1.5 µM [45]: 134 mL/min/kg | Activity [46]: 3% | half-life at 1.5 µM [47]: 13 min | Activity [48]: 40% | Activity [49]: 3.16% | Activity [50]: 0.16% | Activity [51]: 99.46% | Activity [52]: 0.07%

clearance [1]: 42.7 mL/min/kg | Tmax [8]: 25.2 min | bioavailability [9]: 15.2% | half-life [11]: 54.6 min | half-life [12]: 63 min | MRT last [14]: 51.6 min | Cmax [16]: 566 ng/mL | AUC(0-t) ([18]; in vivo): 894 ng·h/mL | AUC(0-t) ([19]; in vivo): 1960 ng·h/mL | Cmax [22]: 2770 ng/mL | MRT last [24]: 87.6 min
Structure (SMILES): Cc1ccccc1CN1C(=O)C2=C(CCN(Cc3ccccc3)C2)N2CCN=C12.Cl.Cl.O
